Test results published in patent publication US11001569B2, “6-membered heteroaromatic substituted cyanoindoline derivatives as NIK inhibitors” (Janssen Pharmaceutica NV, priority 2016, dated 2021).
Like-named read-outs stand apart in the source and are kept apart here.

Tests used:
[1] = system: JJN-3 (NIK translocated) multiple myeloma cells; test: Antiproliferative activity on JJN-3 multiple myeloma cells (CellTiter-Glo); assay type: cell-based, human; details: JJN-3 (NIK translocated) cells, 96 hr treatment, averaged values, read-out: JJN-3 Proliferation inhibition (IC50 (nM))
Protocol: (§1) Determination of Antiproliferative Activity on JJN-3 (NIK Translocated) and KMS12-BM (NIK WT) Multiple Myeloma Cells
(§2) All compounds tested were dissolved in DMSO and further dilutions were made in culture medium. Final DMSO concentration was 0.3% (v/v) in cell proliferation assays. Viability was assessed using CellTiter-Glo cell viability assay kit (Promega). […] Cells were routinely kept as suspension cells at 37° C. in a humidified 5% CO2 atmosphere. Cells were passaged at a seeding density of 0.2×10^6/ml twice a week. Cells were seeded in black tissue culture treated 96-well plates (Perkin Elmer). Densities used for plating ranged from 15000 (JJN3) to 20000 (KMS12BM) cells per well in a total volume of 135 μl medium. Drugs and/or solvents were added (15 μl) to a final volume of 150 μl. Following 96 hr of treatment, plates were removed from the incubator and allowed to equilibrate to room temperature for approx 10 min. 75 μl CellTiter-Glo reagent was added to each well that was then covered (Perkin Elmer Topseal) and shaken on plate shaker for 10 min. Luminescence was measured on a HTS Topcount (Perkin Elmer). […] For initial screening purposes, compounds were tested using a 9 point dilution curve (serial 1:3 dilutions). For each experiment, controls (containing no drug) and a blank incubation (containing cells read at the time of compound addition) were run in parallel. The blank value was subtracted from all control and sample values. For each sample, the mean value for cell growth (in relative light units) was expressed as a percentage of the mean value for cell growth of the control.

[2] = biological target: recombinant human NF-kappaB-inducing Kinase (NIK/MAP3K14) (Homo sapiens, UniProt Q99558); test: Inhibition of auto-phosphorylation of recombinant human NIK/MAP3K14 activity (AlphaScreen); assay type: biochemical; details: 25 microM ATP, averaged over all measurements on all batches
recombinant human NF-kappaB-inducing Kinase (NIK/MAP3K14), sequence (Q99558 whole entry): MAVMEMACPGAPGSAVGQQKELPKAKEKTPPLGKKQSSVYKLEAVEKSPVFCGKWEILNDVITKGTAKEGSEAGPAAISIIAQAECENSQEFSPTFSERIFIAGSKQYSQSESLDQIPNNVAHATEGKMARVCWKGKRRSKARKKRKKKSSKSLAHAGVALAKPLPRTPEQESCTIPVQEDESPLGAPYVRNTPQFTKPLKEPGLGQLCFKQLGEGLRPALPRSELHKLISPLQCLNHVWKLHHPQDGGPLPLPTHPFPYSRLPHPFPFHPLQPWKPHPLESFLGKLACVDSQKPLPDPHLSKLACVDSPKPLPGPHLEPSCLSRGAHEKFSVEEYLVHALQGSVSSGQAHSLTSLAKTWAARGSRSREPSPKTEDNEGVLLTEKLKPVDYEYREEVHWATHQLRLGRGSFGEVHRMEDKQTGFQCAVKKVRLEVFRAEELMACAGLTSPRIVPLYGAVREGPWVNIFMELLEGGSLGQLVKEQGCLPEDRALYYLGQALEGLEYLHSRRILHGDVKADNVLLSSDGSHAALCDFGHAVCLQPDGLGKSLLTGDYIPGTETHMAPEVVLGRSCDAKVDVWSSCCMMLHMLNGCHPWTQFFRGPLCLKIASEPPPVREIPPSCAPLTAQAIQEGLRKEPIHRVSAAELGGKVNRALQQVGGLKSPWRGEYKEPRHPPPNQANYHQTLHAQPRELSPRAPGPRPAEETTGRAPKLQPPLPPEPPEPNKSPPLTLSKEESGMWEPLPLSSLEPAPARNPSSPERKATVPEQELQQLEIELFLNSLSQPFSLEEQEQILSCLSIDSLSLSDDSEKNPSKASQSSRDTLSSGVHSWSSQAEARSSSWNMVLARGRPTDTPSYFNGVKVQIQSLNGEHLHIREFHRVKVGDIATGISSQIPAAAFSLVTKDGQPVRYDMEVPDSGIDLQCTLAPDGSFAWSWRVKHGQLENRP
Protocol: Pharmacological Part Biological assay A Inhibition of auto-phosphorylation of recombinant human NF-kappaB-inducing Kinase (NIK/MAP3K14) Activity (AlphaScreen®)
NIK/MAP3K14 auto-phosphorylation activity was measured using the AlphaScreen® (αscreen) format (Perkin Elmer). All compounds tested were dissolved in dimethyl sulfoxide (DMSO) and further dilutions were made in assay buffer. Final DMSO concentration was 1% (v/v) in assays. Assay buffer was 50 mM Tris pH 7.5 containing 1 mM EGTA (ethylene glycol tetraacetic acid), 1 mM DTT (dithiothreitol), 0.1 mM Na3VO4, 5 mM MgCl2, 0.01% Tween® 20. Assays were carried out in 384 well Alphaplates (Perkin Elmer). […] Incubations were initiated by addition of GST-tagged NIK/MAP3K14 enzyme, carried out for 1 h at 25° C. and terminated by addition of stop buffer containing anti-phospho-IKK Ser176/180 antibody. Protein A Acceptor and Glutathione-Donor beads were added before reading using an EnVision® Multilabel Plate Reader (Perkin Elmer). Signal obtained in the wells containing blank samples was subtracted from all other wells and IC50's were determined by fitting a sigmoidal curve to % inhibition of control versus Log10 compound concentration.

[3] = system: KMS12-BM (NIK WT) multiple myeloma cells; test: Antiproliferative activity on KMS12-BM multiple myeloma cells (CellTiter-Glo); assay type: cell-based, human; details: 96 hr treatment, averaged values, read-out: KMS-12 Proliferation inhibition (IC50 (nM))
Protocol: as §1, §2

Compound | IC50 ([1]; Homo sapiens, JJN-3, 96 h) [nM] | IC50 [2] [nM] | IC50 ([3]; Homo sapiens, KMS-12-BM, 96 h) [nM] | melting point [°C] | IC50 [1] [nM] | IC50 [3] [nM]
CN1CCC(Oc2ncc(Cl)cc2Nc2nccc(-c3cc(C#N)c4c(c3)C(C)(CO)CN4)n2)CC1 (centres unmarked) [Compound 15] | 24 | 2.9 | > 10000 | – | – | –
CC(C)Oc1ncc(Cl)cc1Nc1nccc(-c2cc(C#N)c3c(c2)[C@@](C)(CO)CN3)n1 [Compound 30] | 1260 | 51.3 | > 10000 | 195 | – | –
CC1(C)CNc2c(C#N)cc(-c3ccnc(Nc4cnc(N5CCOCC5)nc4)n3)cc21 [Compound 125] | 166 | 9.8 | 891 | 270 | – | –
COc1ncccc1Nc1nccc(-c2cc(C#N)c3c(c2)C(C)(COCCN2CCOCC2)CN3)n1 (centres unmarked) [Compound 117] | > 10000 | 45.7 | > 10000 | 108 | – | –
Cc1cc(Nc2nccc(-c3cc(C#N)c4c(c3)[C@@](C)(CO)CN4)n2)c(C)nc1OC1CCN(C2CC2)CC1 [Compound 176] | – | 4.8 | – | – | – | –
CC1(CO)CNc2c(C#N)cc(-c3nc(Nc4cccnc4OC4CCOCC4)ncc3F)cc21 (centres unmarked) [Compound 107] | 309 | 4.8 | 562 | 226 | – | –
COCCOc1ncccc1Nc1nccc(-c2cc(C#N)c3c(c2)[C@](C)(CO)CN3)n1 [Compound 34] | 2880 | 38 | > 10000 | 152 | – | –
Cc1ncc(Nc2nccc(-c3cc(C#N)c4c(c3)[C@@](C)(CO)CN4)n2)c(OCC2(C)COC2)n1 [Compound 142] | 6310 | 15.1 | > 10000 | – | – | –
COCCOc1ncccc1Nc1nccc(-c2cc(C#N)c3c(c2)[C@@](C)(CO)CN3)n1 [Compound 33] | 298 | 4.2 | > 10000 | – | – | –
COc1ncncc1Nc1nccc(-c2cc(C#N)c3c(c2)C(C)(CO)CN3)n1 (centres unmarked) [Compound 130] | 468 | 4.6 | > 10000 | – | – | –
CC1(CO)CNc2c(C#N)cc(-c3nc(Nc4cc(Cl)cnc4OC4CCOCC4)ncc3F)cc21 (centres unmarked) [Compound 105] | 2240 | 30.9 | ~3720 | 284 | – | –
COCCn1cc(Cl)cc(Nc2nccc(-c3cc(C#N)c4c(c3)[C@@](C)(CO)CN4)n2)c1=O [Compound 14i] | 24 | 1.4 | > 10000 | – | – | –
Cc1nccnc1Nc1nccc(-c2cc(C#N)c3c(c2)[C@@](C)(CO)CN3)n1 [Compound 163] | 3160 | 34.7 | ~5010 | – | – | –
COc1ncc(Cl)cc1Nc1nccc(-c2cc(C#N)c3c(c2)[C@](C)(COC(=O)[C@H](C)N)CN3)n1 [Compound 109] | 794 | 38 | > 10000 | 171 | – | –
COc1ncccc1Nc1nccc(-c2cc(C#N)c3c(c2)[C@@](C)(CO)CN3)n1 [Compound 6] | ~245 | 2.4 | > 10000 | 241 | – | –
COc1ncc(Cl)cc1Nc1nccc(-c2cc(C#N)c3c(c2)C(C)(COCCN2CCOCC2)CN3)n1 (centres unmarked) [Compound 121] | 1410 | 117 | 2510 | 104 | – | –
C[C@]1(CO)CNc2c(C#N)cc(-c3ccnc(Nc4cccnc4OC[C@H]4CCCO4)n3)cc21 [Compound 43] | 115 | 4 | > 10000 | 141 | – | –
CC1(CO)CNc2c(C#N)cc(-c3ccnc(Nc4cncnc4)n3)cc21 (centres unmarked) [Compound 128] | 209 | 6.3 | ~195 | 307 | – | –
CNCC1(C)CNc2c(C#N)cc(-c3ccnc(Nc4cccnc4OC)n3)cc21 (centres unmarked) [Compound 108] | 2140 | 25.1 | ~3980 | 173 | – | –

Compound | IC50 ([1]; Homo sapiens, JJN-3, 96 h) [nM] | IC50 [2] [nM] | IC50 ([3]; Homo sapiens, KMS-12-BM, 96 h) [nM] | melting point [°C] | IC50 [1] [nM] | IC50 [3] [nM]
CCCCOc1ncccc1Nc1nccc(-c2cc(C#N)c3c(c2)[C@@](C)(CO)CN3)n1 [Compound 40] | 550 | 16.6 | 3800 | 143 | – | –
CC1(CO)CNc2c(C#N)cc(-c3ccnc(Nc4ccc(N5CCNCC5)cn4)n3)cc21 (centres unmarked) [Compound 32] | 89 | 6.5 | 437 | – | – | –
COCCCn1cccc(Nc2nccc(-c3cc(C#N)c4c(c3)[C@@](C)(CO)CN4)n2)c1=O [Compound 10i] | 339 | 3 | 4790 | 192 | – | –
COC[C@@]1(C)CNc2c(C#N)cc(-c3ccnc(Nc4cc(Cl)cnc4C)n3)cc21 [Compound 122] | 478 | 9.5 | 4790 | 182 | – | –
COc1ncccc1Nc1nccc(-c2cc(C#N)c3c(c2)C(C)(CN(C)CCO)CN3)n1 (centres unmarked) [Compound 114] | 3550 | 32.4 | > 10000 | 60 | – | –
COC[C@@]1(C)CNc2c(C#N)cc(-c3ccnc(Nc4cc(Cl)cnc4C)n3)cc21 [Compound 145] | – | 9.5 | – | – | 479 | 4790
Cc1ncc(Nc2nccc(-c3cc(C#N)c4c(c3)[C@@](C)(CO)CN4)n2)c(OCC2CCCO2)n1 (single isomer, unassigned) [Compound 138] | – | 29.5 | – | – | 1510 | > 10000
Cc1cnc(OCC2(C)COC2)c(Nc2nccc(-c3cc(C#N)c4c(c3)[C@@](C)(CO)CN4)n2)c1 [Compound 147] | – | 7.9 | – | > 260 | – | –
C[C@]1(CO)CNc2c(C#N)cc(-c3ccnc(Nc4cc(Cl)cnc4OC4CCOCC4)n3)cc21 [Compound 22] | 417 | 10.2 | > 10000 | – | – | –
COc1nc(C(F)(F)F)ccc1Nc1nccc(-c2cc(C#N)c3c(c2)[C@@](C)(CO)CN3)n1 [Compound 54] | 4070 | 39.8 | > 10000 | – | – | –
COc1nc(C2=CCOCC2)ncc1Nc1nccc(-c2cc(C#N)c3c(c2)[C@@](C)(CO)CN3)n1 [Compound 143] | 347 | 7.8 | > 10000 | – | – | –
Cc1cnc(OCC2CCCN2C2CC2)c(Nc2nccc(-c3cc(C#N)c4c(c3)[C@@](C)(CO)CN4)n2)c1 (mixture of isomers) [Compound 175] | – | 19.5 | – | – | – | –
COc1nnc(Cl)cc1Nc1nccc(-c2cc(C#N)c3c(c2)C(C)(CO)CN3)n1 (centres unmarked) [Compound 124] | ~144 | 3.8 | > 10000 | – | – | –
Cc1ncc(Nc2nccc(-c3cc(C#N)c4c(c3)[C@@](C)(CO)CN4)n2)c(OCC(=O)N(C)C)n1 [Compound 144] | > 10000 | 24 | > 10000 | – | – | –
Cc1nc(Nc2nccc(-c3cc(C#N)c4c(c3)[C@@](C)(CO)CN4)n2)cc(N2CCOCC2)n1 [Compound 134] | > 10000 | 38.9 | > 10000 | – | – | –
Cc1nc(C)c(Cl)c(Nc2nccc(-c3cc(C#N)c4c(c3)[C@@](C)(CO)CN4)n2)n1 [Compound 132] | 3310 | 12.9 | > 10000 | – | – | –
Cc1nc(Nc2nccc(-c3cc(C#N)c4c(c3)[C@@](C)(CO)CN4)n2)cc(N2CCN(CCO)CC2)n1 [Compound 133] | ~1950 | 22.9 | > 10000 | – | – | –
COCCOc1nc(P(C)(C)=O)ncc1Nc1nccc(-c2cc(C#N)c3c(c2)[C@@](C)(CO)CN3)n1 [Compound 139] | ~10000 | 17.8 | > 10000 | – | – | –
